Experimental data as given in ChEMBL document CHEMBL1134570, “Synthesis of and a comparative study on the inhibition of muscle and liver glycogen phosphorylases by epimeric pairs of d-gluco- and d-xylopyranosylidene-spiro-(thio)hydantoins and N-(d-glucopyranosyl) amides” (J Med Chem, 2001).
Active and inactive are the calls of the source. The rule behind the calls is not given here.

Tested on: glycogen phosphorylase, muscle form (rabbit)
Test: Inhibitory activity against muscle Glycogen Phosphorylase b; no inhibition
Conditions: Muscle tissue

## NC(=O)[C@]1(O)OC[C@@H](O)[C@H](O)C1O (stereo partly specified)
  NI: inactive
